Results reported in the supplement of paper PMC10307832.

Experiments:
Assay in all cases: relative viability (nuclei count vs DMSO), 5 days (fraction); higher = more cells survive
NCI-H2126 = system: NCI-H2126
In short: (§1)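 After 5 days of treatment, lung cancer cells in 1536-well plates were fixed and stained in a single step (final 0.05% Triton X-100, 1% formaldehyde, 1 ug/ml Hoechst) and their nuclei counted on 4× images. Treatment had been applied by pin tool the day after seeding as one drug alone or as a fixed anchor-drug dose with five library-drug doses (not always all listed) in √10 steps. Relative viability is the nuclei count of treated wells divided by that of vehicle wells, and values are medians of duplicate plates.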

NCI-H23 = system: NCI-H23
In short: as §1

HARA = system: HARA
In short: as §1

NCI-H522 = system: NCI-H522
In short: as §1

NCI-H838 = system: NCI-H838
In short: as §1

NCI-H650 = system: NCI-H650
In short: as §1

NCI-H1993 = system: NCI-H1993
In short: as §1

LCLC-103H = system: LCLC-103H
In short: as §1

HCC-44 = system: HCC-44
In short: as §1

EMC-BAC-2 = system: EMC-BAC-2
In short: as §1

NCI-H2023 = system: NCI-H2023
In short: as §1

NCI-H3122 = system: NCI-H3122
In short: as §1

NCI-H1395 = system: NCI-H1395
In short: as §1

NCI-H441 = system: NCI-H441
In short: as §1

NCI-H2347 = system: NCI-H2347
In short: as §1

NCI-H596 = system: NCI-H596
In short: as §1

NCI-H2087 = system: NCI-H2087
In short: as §1

LOU-NH91 = system: LOU-NH91
In short: as §1

NCI-H647 = system: NCI-H647
In short: as §1

BEN = system: BEN
In short: as §1

201T = system: 201T
In short: as §1

In the case of `Cc1sc2c(c1C)C(c1ccc(Cl)cc1)=N[C@@H](CC(=O)OC(C)(C)C)c1nnc(C)n1-2` [JQ1] + Nc1nc2[nH]cc(CCc3ccc(C(=O)N[C@@H](CCC(=O)O)C(=O)O)cc3)c2c(=O)[nH]1 [Pemetrexed] (partner 0.2 µM), the relative viability (NCI-H2126; first compound 0.04 µM) is reported as 0.71, the relative viability (NCI-H2126; first compound 0.1265 µM) is reported as 0.721 and the relative viability (NCI-H2126; first compound 0.4 µM) is reported as 0.624. The relative viability (NCI-H2126; first compound 1.265 µM) was 0.519, the relative viability (NCI-H2126; first compound 4 µM) was 0.413 and the relative viability (NCI-H23; first compound 0.04 µM) was 0.677. The relative viability (NCI-H23; first compound 0.1265 µM) was 0.67, the relative viability (NCI-H23; first compound 0.4 µM) was 0.41 and the relative viability (NCI-H23; first compound 1.265 µM) was 0.208. It also gave a relative viability (NCI-H23; first compound 4 µM) of 0.171, a relative viability (HARA; first compound 0.04 µM) of 0.249 and a relative viability (HARA; first compound 0.1265 µM) of 0.271. For the same compound, the relative viability (HARA; first compound 0.4 µM) was 0.235, the relative viability (HARA; first compound 1.265 µM) was 0.217 and the relative viability (HARA; first compound 4 µM) was 0.185. For the same compound, the relative viability (NCI-H522; first compound 0.04 µM) was 0.929, the relative viability (NCI-H522; first compound 0.1265 µM) was 0.877 and the relative viability (NCI-H522; first compound 0.4 µM) was 0.54. It also gave a relative viability (NCI-H522; first compound 1.265 µM) of 0.59, a relative viability (NCI-H522; first compound 4 µM) of 0.444 and a relative viability (NCI-H838; first compound 0.04 µM) of 0.24. The relative viability (NCI-H838; first compound 0.1265 µM) was 0.167, the relative viability (NCI-H838; first compound 0.4 µM) was 0.176 and the relative viability (NCI-H838; first compound 1.265 µM) was 0.177. For the same compound, the relative viability (NCI-H838; first compound 4 µM) was 0.17, the relative viability (NCI-H650; first compound 0.04 µM) was 0.886 and the relative viability (NCI-H650; first compound 0.1265 µM) was 0.664. The relative viability (NCI-H650; first compound 0.4 µM) was 0.839, the relative viability (NCI-H650; first compound 1.265 µM) was 0.6 and the relative viability (NCI-H650; first compound 4 µM) was 0.276. For the same compound, the relative viability (NCI-H1993; first compound 0.04 µM) was 0.592, the relative viability (NCI-H1993; first compound 0.1265 µM) was 0.649 and the relative viability (NCI-H1993; first compound 0.4 µM) was 0.583. For the same compound, the relative viability (NCI-H1993; first compound 1.265 µM) was 0.478, the relative viability (NCI-H1993; first compound 4 µM) was 0.49 and the relative viability (LCLC-103H; first compound 0.04 µM) was 0.44. It also gave a relative viability (LCLC-103H; first compound 0.1265 µM) of 0.385, a relative viability (LCLC-103H; first compound 0.4 µM) of 0.393 and a relative viability (LCLC-103H; first compound 1.265 µM) of 0.359. For the same compound, the relative viability (LCLC-103H; first compound 4 µM) was 0.437, the relative viability (HCC-44; first compound 0.04 µM) was 0.59 and the relative viability (HCC-44; first compound 0.1265 µM) was 0.617. The relative viability (HCC-44; first compound 0.4 µM) was 0.692, the relative viability (HCC-44; first compound 1.265 µM) was 0.58 and the relative viability (HCC-44; first compound 4 µM) was 0.444. The relative viability (EMC-BAC-2; first compound 0.04 µM) was 0.437, the relative viability (EMC-BAC-2; first compound 0.1265 µM) was 0.369 and the relative viability (EMC-BAC-2; first compound 0.4 µM) was 0.365. It also gave a relative viability (EMC-BAC-2; first compound 1.265 µM) of 0.366, a relative viability (EMC-BAC-2; first compound 4 µM) of 0.33 and a relative viability (NCI-H2023; first compound 0.04 µM) of 0.231. It also gave a relative viability (NCI-H2023; first compound 0.1265 µM) of 0.195, a relative viability (NCI-H2023; first compound 0.4 µM) of 0.139 and a relative viability (NCI-H2023; first compound 1.265 µM) of 0.101. It also gave a relative viability (NCI-H2023; first compound 4 µM) of 0.109, a relative viability (NCI-H3122; first compound 0.04 µM) of 0.193 and a relative viability (NCI-H3122; first compound 0.1265 µM) of 0.16. It also gave a relative viability (NCI-H3122; first compound 0.4 µM) of 0.186, a relative viability (NCI-H3122; first compound 1.265 µM) of 0.118 and a relative viability (NCI-H3122; first compound 4 µM) of 0.12. It also gave a relative viability (NCI-H1395; first compound 0.04 µM) of 0.911, a relative viability (NCI-H1395; first compound 0.1265 µM) of 0.737 and a relative viability (NCI-H1395; first compound 0.4 µM) of 0.797. The relative viability (NCI-H1395; first compound 1.265 µM) was 0.496, the relative viability (NCI-H1395; first compound 4 µM) was 0.343 and the relative viability (NCI-H441; first compound 0.04 µM) was 0.271. The relative viability (NCI-H441; first compound 0.1265 µM) was 0.263, the relative viability (NCI-H441; first compound 0.4 µM) was 0.273 and the relative viability (NCI-H441; first compound 1.265 µM) was 0.213. For the same compound, the relative viability (NCI-H441; first compound 4 µM) was 0.186, the relative viability (NCI-H2347; first compound 0.04 µM) was 0.468 and the relative viability (NCI-H2347; first compound 0.1265 µM) was 0.423. The relative viability (NCI-H2347; first compound 0.4 µM) was 0.403, the relative viability (NCI-H2347; first compound 1.265 µM) was 0.405 and the relative viability (NCI-H2347; first compound 4 µM) was 0.357. The relative viability (NCI-H596; first compound 0.04 µM) was 0.491, the relative viability (NCI-H596; first compound 0.1265 µM) was 0.461 and the relative viability (NCI-H596; first compound 0.4 µM) was 0.386. For the same compound, the relative viability (NCI-H596; first compound 1.265 µM) was 0.335, the relative viability (NCI-H596; first compound 4 µM) was 0.367 and the relative viability (NCI-H2087; first compound 0.04 µM) was 0.621. For the same compound, the relative viability (NCI-H2087; first compound 0.1265 µM) was 0.675, the relative viability (NCI-H2087; first compound 0.4 µM) was 0.692 and the relative viability (NCI-H2087; first compound 1.265 µM) was 0.558. The relative viability (NCI-H2087; first compound 4 µM) was 0.463, the relative viability (LOU-NH91; first compound 0.04 µM) was 0.365 and the relative viability (LOU-NH91; first compound 0.1265 µM) was 0.387. It also gave a relative viability (LOU-NH91; first compound 0.4 µM) of 0.354, a relative viability (LOU-NH91; first compound 1.265 µM) of 0.334 and a relative viability (LOU-NH91; first compound 4 µM) of 0.362. It also gave a relative viability (NCI-H647; first compound 0.04 µM) of 0.156, a relative viability (NCI-H647; first compound 0.1265 µM) of 0.125 and a relative viability (NCI-H647; first compound 0.4 µM) of 0.105. For the same compound, the relative viability (NCI-H647; first compound 1.265 µM) was 0.0945, the relative viability (NCI-H647; first compound 4 µM) was 0.0741 and the relative viability (BEN; first compound 0.04 µM) was 0.7. For the same compound, the relative viability (BEN; first compound 0.1265 µM) was 0.523, the relative viability (BEN; first compound 0.4 µM) was 0.67 and the relative viability (BEN; first compound 1.265 µM) was 0.518. For the same compound, the relative viability (BEN; first compound 4 µM) was 0.384, the relative viability (201T; first compound 0.04 µM) was 0.325 and the relative viability (201T; first compound 0.4 µM) was 0.293. It also gave a relative viability (201T; first compound 1.265 µM) of 0.274 and a relative viability (201T; first compound 4 µM) of 0.23.
